Activity calls are given as the source filed them. The calls are words filed in the database; no cut-off is given here.

The subject of one assay is HeLa. The assay is described as follows: Cytotoxicity against Homo sapiens (human) HeLa cells assessed as inhibition of cell viability by MTT assay. It is filed as functional, cell-based. (In general: Tetrazolium dyes change colour on reduction, which living cells bring about.)
The next assay relates to A549. The assay is described as follows: Cytotoxicity against Homo sapiens (human) A549 cells assessed as inhibition of cell viability by MTT assay. Type of assay: functional, cell-based.
The test system of another assay is MRC5. The experiment in a line: Cytotoxicity against Homo sapiens (human) MRC5 cells assessed as inhibition of cell viability by MTT assay. Type of assay: cell-based.
The nature of assay [1]: Binding affinity to DNA assessed as peak current at 1 mM measured at potential of 0.45 V immediately after drug addition by cyclic voltammetry in presence of 1 mM cytosine.
Assay [2] can be described thus: Binding affinity to DNA assessed as peak current at 1 mM measured at potential of 0.45 V at 3 hr after drug addition by cyclic voltammetry in presence of 3 mM cytosine.
A short description of assay [3]: Binding affinity to DNA assessed as peak current at 1 mM measured at potential of 1.3 V at 3 hr after drug addition by cyclic voltammetry in presence of 3 mM cytosine.
Assay [4] in a line: Binding affinity to DNA assessed as peak current at 1 mM measured at potential of 1.3 V immediately after drug addition by cyclic voltammetry in presence of 1 mM cytosine.
Assay [5] is described as follows: Binding affinity to DNA assessed as peak current at 1 mM at potential of 0.45 V by cyclic voltammetry.
Assay [6] in a line: Binding affinity to DNA assessed as peak current at 1 mM measured at potential of 1.3 V at 30 min after drug addition by cyclic voltammetry in presence of 1 mM cytosine.
Assay [7] can be described thus: Binding affinity to DNA assessed as peak current at 1 mM at potential of 1.3 V by cyclic voltammetry.

By IC50 is commonly meant the concentration that gives 50% inhibition. With `N#CC1=C(N)Oc2c(c(C(F)(F)F)nn2-c2ccc(F)cc2)C1c1cccs1` (stereo not given), the IC50 in the assay with HeLa, with A549 and in the assay on MRC5 was above 100 µM each time.
For the compound `COc1ccc(C2C(C#N)=C(N)Oc3c2c(C(F)(F)F)nn3-c2cccc(Cl)c2)cc1` (stereo not given), the half-maximal inhibitory concentration (IC50) in the assay with HeLa is above 100 µM; with A549, 89.4 µM; with MRC5, above 100 µM.
On to `Cc1ccc(C2C(C#N)=C(N)Oc3c2c(C(F)(F)F)nn3-c2ccc(F)cc2)cc1` (stereo not given), for which the concentration for half-maximal inhibition (IC50) in the assay with HeLa, with A549 and in the assay with MRC5 was above 100 µM each time.
For `N#CC1=C(N)Oc2c(c(C(F)(F)F)nn2-c2ccc(F)cc2)C1c1ccc([N+](=O)[O-])cc1` (stereo not given), the IC50 with HeLa, with A549 and in the assay with MRC5 was above 100 µM in each case.
Regarding `N#CC1=C(N)Oc2c(c(C(F)(F)F)nn2-c2ccccc2)C1c1cccs1` (stereo not given), the IC50 with HeLa was 74.1 µM; in the assay on A549, 75.5 µM; in the assay on MRC5, above 100 µM.
`N#CC1=C(N)Oc2c(c(C(F)(F)F)nn2-c2ccccc2)C1c1ccc([N+](=O)[O-])cc1` (stereo not given): the IC50 in the assay with HeLa, with A549 and in the assay on MRC5 was above 100 µM throughout.
As to `N#CC1=C(N)Oc2c(c(C(F)(F)F)nn2-c2ccccc2)C1c1ccco1` (stereo not given), the half-maximal inhibitory concentration (IC50) in the assay on HeLa, in the assay with A549 and with MRC5 was above 100 µM each time.
On to `COc1ccc(C2C(C#N)=C(N)Oc3c2c(C(F)(F)F)nn3-c2ccc(F)cc2)cc1` (stereo not given), for which the result in assay [1], in assay [2], in assay [5], in [6] and in [7] was Active. In addition, the half-inhibitory concentration (IC50) in the assay on HeLa is above 100 µM; with A549, 10.3 µM; with MRC5 it was above 100 µM. Also, the result in assay [3] and in [4] was inactive.
For `N#CC1=C(N)Oc2c(c(C(F)(F)F)nn2-c2cccc(Cl)c2)C1c1ccc([N+](=O)[O-])cc1` (stereo not given), the IC50 with HeLa, in the assay on A549 and in the assay with MRC5 was above 100 µM each time.
As for `COc1cccc(C2C(C#N)=C(N)Oc3c2c(C(F)(F)F)nn3-c2ccccc2)c1` (stereo not given), the IC50 in the assay on HeLa, with A549 and with MRC5 was above 100 µM each time.
Regarding `N#CC1=C(N)Oc2c(c(C(F)(F)F)nn2-c2cccc(Cl)c2)C1c1ccco1` (stereo not given), the concentration for half-maximal inhibition (IC50) with HeLa, in the assay on A549 and with MRC5 was above 100 µM throughout.

(Values after ChEMBL document CHEMBL3046660, “Synthesis, cytotoxic, and DNA binding studies of novel fluorinated condensed pyrano pyrazoles” (Med Chem Res, 2013).)
